Laboratory results from ChEMBL document CHEMBL5303573, “Mapping human microbiome drug metabolism by gut bacteria and their genes” (Nature, 2019).

Experiments:
[1] = The drug is tested on Bifidobacterium ruminantium strain: fecal isolate for biotransformation. The drug concentrations were measured before and after a 12-h incubation by liquid-chromatography-coupled mass spectrometry (LC–MS); details: 2 µM
[2] = The drug is tested on Collinsella intestinalis strain: DSM13280 for biotransformation. The drug concentrations were measured before and after a 12-h incubation by liquid-chromatography-coupled mass spectrometry (LC–MS); details: 2 µM
[3] = The drug is tested on Bacteroides caccae strain: ATCC43185 for biotransformation. The drug concentrations were measured before and after a 12-h incubation by liquid-chromatography-coupled mass spectrometry (LC–MS); details: 2 µM
[4] = The drug is tested on Bacteroides coprophilus strain: DSM18228 for biotransformation. The drug concentrations were measured before and after a 12-h incubation by liquid-chromatography-coupled mass spectrometry (LC–MS); details: 2 µM
[5] = The drug is tested on Bacteroides finegoldii strain: DSM17565 for biotransformation. The drug concentrations were measured before and after a 12-h incubation by liquid-chromatography-coupled mass spectrometry (LC–MS); details: 2 µM
[6] = The drug is tested on Bacteroides uniformis strain: ATCC8492 for biotransformation. The drug concentrations were measured before and after a 12-h incubation by liquid-chromatography-coupled mass spectrometry (LC–MS); details: 2 µM
[7] = The drug is tested on Bacteroides vulgatus strain: ATCC8482 for biotransformation. The drug concentrations were measured before and after a 12-h incubation by liquid-chromatography-coupled mass spectrometry (LC–MS); details: phocaeicola vulgatus, 2 µM
[8] = The drug is tested on Bacteroides sp. WH2 strain: WH2 for biotransformation. The drug concentrations were measured before and after a 12-h incubation by liquid-chromatography-coupled mass spectrometry (LC–MS); details: bacteroides sp. wh2, 12 h, 2 µM
[9] = The drug is tested on Bacteroides xylanisolvens strain: DSM18836 for biotransformation. The drug concentrations were measured before and after a 12-h incubation by liquid-chromatography-coupled mass spectrometry (LC–MS); details: 2 µM
[10] = The drug is tested on Odoribacter splanchnicus strain: fecal isolate for biotransformation. The drug concentrations were measured before and after a 12-h incubation by liquid-chromatography-coupled mass spectrometry (LC–MS); details: 2 µM
[11] = The drug is tested on Anaerococcus hydrogenalis strain: DSM7454 for biotransformation. The drug concentrations were measured before and after a 12-h incubation by liquid-chromatography-coupled mass spectrometry (LC–MS); details: 2 µM
[12] = The drug is tested on Dorea formicigenerans strain: ATCC27755 for biotransformation. The drug concentrations were measured before and after a 12-h incubation by liquid-chromatography-coupled mass spectrometry (LC–MS); details: 2 µM
[13] = The drug is tested on Ruminococcus torques strain: ATCC27756 for biotransformation. The drug concentrations were measured before and after a 12-h incubation by liquid-chromatography-coupled mass spectrometry (LC–MS); type: ADME; design: dose 2 uM, timepoint 0 vs 12 hours; details: 2 µM
[14] = bacteroides fragilis, 12 h, 2 µM
Description: The drug is tested on Bacteroides fragilis strain: DS-208 for biotransformation. The drug concentrations were measured before and after a 12-h incubation by liquid-chromatography-coupled mass spectrometry (LC–MS)

[15] = bacteroides intestinalis, 12 h, 2 µM
Description: The drug is tested on Bacteroides intestinalis strain: DSM17393 for biotransformation. The drug concentrations were measured before and after a 12-h incubation by liquid-chromatography-coupled mass spectrometry (LC–MS)

[16] = parabacteroides johnsonii, 12 h, 2 µM
Description: The drug is tested on Parabacteroides johnsonii strain: DSM18315 for biotransformation. The drug concentrations were measured before and after a 12-h incubation by liquid-chromatography-coupled mass spectrometry (LC–MS)

[17] = akkermansia muciniphila, 12 h, 2 µM
Description: The drug is tested on Akkermansia muciniphila strain: ATCC BAA-835 for biotransformation. The drug concentrations were measured before and after a 12-h incubation by liquid-chromatography-coupled mass spectrometry (LC–MS)

[18] = The drug is tested on Providencia rettgeri strain: DSM1131 for biotransformation. The drug concentrations were measured before and after a 12-h incubation by liquid-chromatography-coupled mass spectrometry (LC–MS); type: ADME; design: dose 2 uM, timepoint 0 vs 12 hours; details: 2 µM
[19] = The drug is tested on Providencia stuartii strain: ATCC25827 for biotransformation. The drug concentrations were measured before and after a 12-h incubation by liquid-chromatography-coupled mass spectrometry (LC–MS); details: 2 µM

SMILES	Bacterial Biotransformation [1]	Bacterial Biotransformation [2]	Bacterial Biotransformation [3]	Bacterial Biotransformation [4]	Bacterial Biotransformation [5]	Bacterial Biotransformation [6]	Bacterial Biotransformation [7]	Bacterial Biotransformation [8]	Bacterial Biotransformation [9]	Bacterial Biotransformation [10]	Bacterial Biotransformation [11]	Bacterial Biotransformation [12]	Bacterial Biotransformation [13]	Bacterial Biotransformation [14]	Bacterial Biotransformation [15]	Bacterial Biotransformation [16]	Bacterial Biotransformation [17]	Bacterial Biotransformation [18]	Bacterial Biotransformation [19]
COc1ccc([C@@H]2Sc3ccccc3N(CCN(C)C)C(=O)[C@@H]2OC(C)=O)cc1 [DILTIAZEM]	Compound NOT metabolized	Compound NOT metabolized	Compound metabolized	Compound metabolized	Compound metabolized	Compound metabolized	Compound metabolized	Compound metabolized	Compound metabolized	Compound NOT metabolized	Compound NOT metabolized	Compound metabolized	Compound metabolized	Compound NOT metabolized	Compound metabolized	Compound metabolized	Compound metabolized		
OC(Cn1cncn1)(Cn1cncn1)c1ccc(F)cc1F [FLUCONAZOLE]	Compound metabolized	Compound NOT metabolized	Compound NOT metabolized	Compound NOT metabolized	Compound NOT metabolized	Compound metabolized		Compound NOT metabolized	Compound metabolized	Compound metabolized	Compound NOT metabolized	Compound metabolized	Compound metabolized			Compound metabolized	Compound metabolized		
COc1ccccc1N1CCN(CC(O)COc2cccc3ccccc23)CC1 (stereo unspecified) [NAFTOPIDIL]		Compound NOT metabolized	Compound NOT metabolized	Compound NOT metabolized	Compound NOT metabolized	Compound NOT metabolized	Compound NOT metabolized	Compound NOT metabolized	Compound NOT metabolized	Compound NOT metabolized	Compound NOT metabolized	Compound NOT metabolized	Compound NOT metabolized	Compound NOT metabolized	Compound NOT metabolized	Compound NOT metabolized	Compound NOT metabolized	Compound NOT metabolized	Compound NOT metabolized
Cc1ccc(NC(=O)c2ccc(CN3CCN(C)CC3)cc2)cc1Nc1nccc(-c2cccnc2)n1 [IMATINIB]	Compound NOT metabolized	Compound NOT metabolized	Compound NOT metabolized	Compound NOT metabolized	Compound NOT metabolized	Compound NOT metabolized	Compound metabolized	Compound NOT metabolized	Compound metabolized	Compound NOT metabolized	Compound NOT metabolized	Compound NOT metabolized	Compound NOT metabolized	Compound NOT metabolized	Compound NOT metabolized	Compound NOT metabolized	Compound NOT metabolized		Compound NOT metabolized
CN(C)CC(c1ccc(O)cc1)C1(O)CCCCC1.O=C(O)CCC(=O)O (stereo unspecified) [DESVENLAFAXINE SUCCINATE]		Compound NOT metabolized	Compound NOT metabolized	Compound NOT metabolized	Compound NOT metabolized	Compound NOT metabolized	Compound NOT metabolized	Compound NOT metabolized	Compound NOT metabolized	Compound NOT metabolized	Compound NOT metabolized	Compound NOT metabolized	Compound NOT metabolized	Compound NOT metabolized	Compound NOT metabolized		Compound NOT metabolized	Compound NOT metabolized	Compound NOT metabolized
CN(C(=O)CN(CCO)CC(=O)N(C)C(C)(C)Cc1ccccc1)C(C)(C)Cc1ccccc1 [OXETHAZAINE]	Compound NOT metabolized	Compound NOT metabolized	Compound NOT metabolized	Compound NOT metabolized	Compound NOT metabolized		Compound NOT metabolized	Compound NOT metabolized		Compound NOT metabolized	Compound NOT metabolized	Compound NOT metabolized	Compound NOT metabolized			Compound NOT metabolized	Compound NOT metabolized		Compound NOT metabolized
CC(C)c1c(CN(C)C(C)Cc2ccccc2)n(C)n(-c2ccccc2)c1=O (stereo unspecified) [FAMPROFAZONE]			Compound NOT metabolized	Compound metabolized	Compound metabolized	Compound metabolized	Compound metabolized	Compound metabolized	Compound metabolized	Compound metabolized	Compound metabolized	Compound metabolized	Compound NOT metabolized	Compound metabolized	Compound metabolized	Compound metabolized	Compound metabolized	Compound NOT metabolized	Compound NOT metabolized
CC(=O)CCCCn1c(=O)c2c(ncn2C)n(C)c1=O [PENTOXIFYLLINE]		Compound NOT metabolized	Compound NOT metabolized	Compound NOT metabolized		Compound NOT metabolized		Compound NOT metabolized	Compound NOT metabolized	Compound NOT metabolized	Compound NOT metabolized	Compound NOT metabolized	Compound NOT metabolized	Compound NOT metabolized	Compound NOT metabolized	Compound NOT metabolized	Compound NOT metabolized		Compound NOT metabolized
CCN(CC)C(C)CN1c2ccccc2Sc2ccccc21 (stereo unspecified) [ETHOPROPAZINE]		Compound NOT metabolized	Compound metabolized	Compound NOT metabolized	Compound NOT metabolized	Compound metabolized	Compound metabolized	Compound NOT metabolized	Compound metabolized	Compound metabolized	Compound NOT metabolized	Compound NOT metabolized		Compound NOT metabolized	Compound metabolized	Compound metabolized	Compound NOT metabolized		Compound metabolized
